From publication PMC8881512 (Nature Communications, 2022)
Where “and” joins values, the source holds several entries; their conditions need not be identical. Identical values can stand only once.

How the values were obtained:
T47D cells = test: Colony-formation assay, T47D (wild-type and ESR1 knock-in); format: cell-based; conditions: 1 μM 4OHT, 0.2 μM Fulvestrant, 2 μM VT02956, 2 μM VT02484, 14 days, Fig.6h
Procedure: For colony formation, cells were plated into 12-well plate with a constant density at the start date of treatment in triplicate with the indicated compounds and further cultured for 10 days (MCF-7) or 14 days (T47D). The drugs were refreshed every 2–4 days. The colonies were then fixed with 4% paraformaldehyde for 15 min and stained with 0.1% crystal violet in 20% methanol solution for quantification.

MCF-7 cells [1] = test: Cell proliferation by cell counting, MCF-7; format: cell-based, human; conditions: for Fold change of cell proliferation: 4OHT (0.5 μM), Fig.6f; for Cell proliferation (cell counting): 1 μM Entinostat for 4 days, Fig.1p
Procedure: Cell proliferation rates were determined by automated cell counter. In brief, cells were plated at density of 0.1 million cells per well in six-well plate. Cell numbers were counted by the indicated time point as stated in the figure legends.

MCF-7 cells [2] = test: Colony-formation assay, MCF-7 (wild-type and ESR1 knock-in); format: cell-based, human; conditions: for Relative colony formation: 1 μM 4OHT, 0.2 μM Fulvestrant, 2 μM VT02956, 2 μM VT02484, Fig.6g
Procedure: […] The drugs were refreshed every 2–4 days. The colonies were then fixed with 4% paraformaldehyde for 15 min and stained with 0.1% crystal violet in 20% methanol solution for quantification.

TEAD-VGLL3-NCOR2 complex = molecular target: T1, TEAD-VGLL3-NCOR2 complex (Homo sapiens, UniProt Q15562); test: TEAD2 co-immunoprecipitation with NCOR2 / VGLL3; format: cell-based; conditions: MCF7 transfected cells; Fig. 2n
T1 construct: expressed in transfected cells; host or cells: MCF-7
Procedure: For immunoprecipitations, cells were rinsed with ice-cold DPBS and then lysed in mild lysis buffer (150 mM NaCl, 50 mM Tris-Cl pH7.5, 0.5% Triton X-100) with protease inhibitors (Roche, #11873580001) and phosphatase inhibitors (Thermo Scientific, #88667) on ice for 30 min and centrifuged at 12,000 rpm for 10 min. Primary antibodies and Protein A/G magnetic beads (Pierce, #88803) were added to the supernatants and incubated with rotation for 3 h at 4 °C. Immunoprecipitants were washed four times with lysis buffer and were denatured by SDS-PAGE sample buffer and boiled for 5 min.

[3] = test system: contact between ESR1 promoter and super enhancer locus; test: 3C library targeted bait qPCR (3C-qPCR); format: cell-based, human; conditions: MCF-7 LATS1/2 dKO + 1 µM VT107 for 2 days; relative to Parental; Fig.s5f
Procedure: The 3C templates were generated by combining the protocols of 3C[40] with in-situ Hi-C[41]. Briefly, 10 million cells were collected, and the cell pellet was resuspended in DPBS with formaldehyde added at a final concentration of 1% at room temperature for 10 min. […] The nuclei were further washed once by in-situ lysis buffer and resuspended in 50 μl 0.5% SDS solution at 62 °C for exactly 10 min. The SDS was then neutralised by adding 145 μl H2O and 25 μl 10% Triton X-100 at 37 °C for 15 min. After adding 100 U DpnII (NEB, #R0543) with the presence of 1x NBEuffer 3.1, the restriction enzyme digestion was conducted in a thermomixer overnight at 37 °C. The restriction enzyme was then heat inactivated by incubating at 65 °C for 20 minutes. Then the digested chromatin was re-ligated by adding 900 μl Ligation Master Mix (1.3x NEB T4 Ligase Buffer, 1.1% X-100, 0.05% BSA and 2 U/μl T4 ligase) and incubated overnight at 16 °C with constant rotation. […] The 3C DNA was then purified with phenol-chloroform, precipitated and washed in 70% ethanol, and resuspend in Elution Buffer (1 mM Tris-HCl pH 8.0, 0.1 mM EDTA) and quantified with Nanodrop. […] Library concentration was measured with Qubit sdDNA HS Assay Kit and further qualified with Tapestation. […] After sequencing quality control with FastQC and trimming of adaptor sequence with Trim Galore, reads were processed in accordance with the Umi4C pipeline.

[4] = test system: ERα, YAP/TAZ phosphorylation in MCF-7 cells; test: Immunoblot analysis, MCF-7 cells; format: cell-based, human; conditions: WT or LATS1/2 dKO MCF-7; 1 µM of VT-107 for 2 days; Supplementary Fig. 4k
[5] = test system: YAP/TAZ target, ESR1 and ERα target gene mRNA in BTO-02; test: qPCR gene expression in breast tumour organoids BTO-02; format: cell-based, human; conditions: BTO-02 starved for E2 for 3 days, then 100 nM E2 for 2 hours; Fig.s6o;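 also: relative mRNA abundance computed by the ΔCt approach from SYBR-based real-time qPCR, with GAPDH as internal housekeeping reference for normalisation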
[6] = test system: VGLL3, ESR1, YAP/TAZ target and ERα target gene mRNA in MCF-7 cells; test: qPCR gene expression in MCF-7 cells; conditions: 1 μM Entinostat for 24 h, Fig.1o;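 also: SYBR Green real-time PCR, mRNA abundance computed by the ΔCt approach with GAPDH transcript as the internal normalisation control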
[7] = test system: ER+ breast tumour organoids (BTO-02); test: 3D organoids drug response assay (CellTiter-Glo 3D); format: cell-based, human; conditions: BTO-02; 12 days treatment with 0.2 µM Fulvestrant or 1 µM Tamoxifen; Fig.s6p
Procedure: Breast tumour organoids were dissociated into single cells using TrypLE Express and counted with automated cell counter. Subsequently, 1000 cells were mixed in 10 μl BME type 2, seeded onto 96-well plate in triplicate and overlaid with 100 μl BC organoid medium (BOM) after BME gelation. Three days after organoids sphere formation, medium was removed and replaced by 100 μl of complete medium containing VT02956 (0, 0.04, 0.2, 1, 5 μM) or vehicle (DMSO). The drug-containing medium was refreshed every 3 days for additional 3–4 times. At the end of the treatment, the effect of the drugs on the tumour organoids, in terms of the organoids cell growth, was assayed with CellTiter-Glo 3D (Promega) according to the manufacturer’s instructions and were normalised to vehicle controls (0.5% DMSO content). The IC50 values was calculated in GraphPad Prism 8.

T1 sequence (Q15562 whole entry, one chain of several): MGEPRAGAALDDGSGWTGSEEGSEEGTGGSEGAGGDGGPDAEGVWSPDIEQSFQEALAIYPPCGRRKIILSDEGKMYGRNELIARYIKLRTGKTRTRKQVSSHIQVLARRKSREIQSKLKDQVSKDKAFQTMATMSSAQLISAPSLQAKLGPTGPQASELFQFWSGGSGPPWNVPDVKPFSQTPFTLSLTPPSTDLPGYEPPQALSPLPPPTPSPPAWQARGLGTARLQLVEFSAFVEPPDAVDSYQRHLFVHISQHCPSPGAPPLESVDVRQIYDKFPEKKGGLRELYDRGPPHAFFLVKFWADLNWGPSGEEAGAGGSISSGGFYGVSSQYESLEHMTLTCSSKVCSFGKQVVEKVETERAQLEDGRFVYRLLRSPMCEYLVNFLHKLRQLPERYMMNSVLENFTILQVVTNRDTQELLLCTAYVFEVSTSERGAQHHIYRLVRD

Compound: CC/C(=C(\c1ccc(O)cc1)c1ccc(OCCN(C)C)cc1)c1ccccc1 [4OHT, 4-Hydroxytamoxifen, reference compound]
- Relative colony formation (T47D cells; T47D ERa Y537S knock-in): 0.79 and 0.83 and 0.77
- Relative colony formation (T47D cells; T47D WT): 0.41 and 0.38 and 0.44
- Fold change of cell proliferation (MCF-7 cells [1]; MCF-7 ERα-Y537S knock-in + ctrl): 1.082 and 1.041 and 1.122
- Fold change of cell proliferation (MCF-7 cells [1]; MCF-7 ERα-Y537S knock-in + sgLATS1/2): 0.2796 and 0.349 and 0.2955
- Fold change of cell proliferation (MCF-7 cells [1]; MCF-7 wt + ctrl): 0.5306 and 0.5714 and 0.5918
- Fold change of cell proliferation (MCF-7 cells [1]; MCF-7 wt + sgLATS1/2): 0.2041 and 0.1918 and 0.1796
- Relative colony formation (MCF-7 cells [2]; MCF-7 ERa D538G knock-in): 0.71 and 0.61 and 0.66
- Relative colony formation (MCF-7 cells [2]; MCF-7 ERa Y537S knock-in): 0.79 and 0.83 and 0.77
- Relative colony formation (MCF-7 cells [2]; MCF-7 WT): 0.38 and 0.41 and 0.34

Compound: VT-107
- TEAD2 Co-IP with VGLL3 / NCOR2 (TEAD-VGLL3-NCOR2 complex): disrupted the interaction of TEAD with either VGLL3 or NCOR2
- Rel. Contact (3C-qPCR) between ESR1 promoter and super enhancer [3]: 0.5958 and 0.5632 and 0.5017
- ERα level (immunoblot) [4]: ameliorated the ERα downregulation caused by LATS1/2 dKO

Compound: C[C@]12CC[C@@H]3c4ccc(O)cc4CC[C@H]3[C@@H]1CC[C@@H]2O [E2, 17β-estradiol, reference compound]
- GREB1 Rel. expression (BTO-02) [5]: 4.976 and 4.601 and 4.355
- TFF1 Rel. expression (BTO-02) [5]: 6.504 and 6.591 and 6.279

Compound: CC(=O)c1c(C)c2cnc(Nc3ccc(N4CCNCC4)cn3)nc2n(C2CCCC2)c1=O [Palbociclib, reference compound]
- MCF-7 growth, palbociclib combined with LATS1/2 depletion (MCF-7 cells [1]; LATS1/2 deficient MCF-7, Palbociclib 0.1 or 0.3 µM for 7 days, Supplementary Fig. 8i): dramatically reduced MCF-7 growth
- Rel. colony (colony-formation assay) (MCF-7 cells [2]; MCF-7, VT02956 (2 μM), VT02484 (2 μM) or Palbociclib (0.1 μM) alone or in combinations, Fig.6d): 0.58 and 0.54 and 0.51

Compound: Nc1ccccc1NC(=O)c1ccc(CNC(=O)OCc2cccnc2)cc1 [Entinostat, reference compound]
- Cell proliferation (cell counting) (MCF-7 cells [1]; VGLL3 KO MCF-7): 10.42 and 9.55 and 11.21
- Cell proliferation (cell counting) (MCF-7 cells [1]; Wild-type MCF-7): 4.59 and 3.87 and 4.88
- ESR1 expression (qPCR) ([6]; VGLL3 KO MCF-7): 0.5015 and 0.486 and 0.4463
- ESR1 expression (qPCR) ([6]; Wild-type MCF-7): 0.07832 and 0.08939 and 0.1138

Compound: C[C@]12CC[C@@H]3c4ccc(O)cc4C[C@@H](CCCCCCCCC[S+]([O-])CCCC(F)(F)C(F)(F)F)[C@H]3[C@@H]1CC[C@@H]2O (stereo partly drawn) [Fulvestrant, reference compound]
- Relative colony formation (T47D cells; T47D ERa Y537S knock-in): 0.68 and 0.73 and 0.65
- Relative colony formation (T47D cells; T47D WT): 0.38 and 0.35 and 0.32
- Rel. growth (BTO-02, %) [7]: 43.197% and 36.224% and 48.81%
- Relative colony formation (MCF-7 cells [2]; MCF-7 ERa D538G knock-in): 0.58 and 0.62 and 0.53
- Relative colony formation (MCF-7 cells [2]; MCF-7 ERa Y537S knock-in): 0.68 and 0.73 and 0.65
- Relative colony formation (MCF-7 cells [2]; MCF-7 WT): 0.31 and 0.26 and 0.32

Compound: CC/C(=C(\c1ccccc1)c1ccc(OCCN(C)C)cc1)c1ccccc1 [Tamoxifen]
- Rel. growth (BTO-02, %) [7]: 55.442% and 49.15% and 52.381%
